Data as given in patent publication EP4741392A1, “1H-PYRAZOLO[4,3-C]PYRIDINE COMPOUND, AND COMPOSITION THEREOF AND USE THEREOF” (Shenzhen TargetRx Co., Ltd., priority 2023, dated 2025).
Read-outs that look alike come from different tables or passages of the source.

What was measured:
TMD8 cells = test: Viability assay of TMD8 cells (CTG); assay type: cell-based; conditions: cell viability, 120 hours
Description: (§1) The in vitro antiproliferative activity of the compounds of the present disclosure against TMD8 cells and OCI-LY10 cells was assayed using CTG (Cell Titer-Glo) luminescent cell viability assay. The specific assay methods were as follows. • a) TMD8 cells were cultured at 37 °C and 5% CO2 in complete medium [RPMI 1640 (supplier Gibco, product number 22400-089) + 10% FBS (supplier Gibco, product number 10091-148) + 1% P/S (supplier Hyclone, product number SV30010)]; OCI-LY10 cells were cultured at 37 °C and 5% CO2 in medium [IMDM (supplier Gibco, product number 31980-030) + 20% FBS (supplier Gibco, product number 10091-148) + 1% P/S (supplier Hyclone, product number SV30010) + 0.05 mM 2-Mercaptoethanol (supplier Sigma, product number M6250)]. • b) Cells in the logarithmic growth phase were harvested, and the total cell count and viable cell count were determined using a Vi-cell cell counter (supplier: BECKMAN COULTER, product number 2785198). • c) Cell density was adjusted using complete culture medium. Then, the cells were inoculated at 1500 cells per well in a 384-well cell culture plate (supplier Greiner, product number 781090). • d) The cells in the 384-well plate were cultured at 37 °C and 5% CO2 overnight. • e) A 10-fold drug solution was prepared, and then the serially diluted compound was transferred to the corresponding assay wells of the 384-well cell plate so that the final assay concentration was 1000 nM, with 9 concentrations, 3-fold dilutions, and triplicates for each drug concentration. • f) The cells in the 384-well plate with the drug added were cultured at 37 °C and 5% CO2 for another 120 hours. • g) The cells were removed from the incubator, and allowed to equilibrate at room temperature for 30 minutes. The cell state and compound solubility were observed under a microscope. • h) An equal volume of CellTiterGlo solution (supplier Promega, product number G7573) was added to each well, and the plate was incubated at room temperature for 30 minutes. • i) Then, the luminescent signal value was detected on an EnVision instrument (supplier PerkinElmer, product number 2441715).
(§2) The data were analyzed using XL-fit software (supplier: ID Business Solutions Ltd., software version: XL fit 5.5.0.5). Nonlinear regression was performed using X=Log(X), and the X values were transformed using a four-parameter Logistic model 205, from which the IC50 values were calculated. Inhibition rate % = (Max−samplevalue)/Max*100.(Max:DMSOnegativecontrol) [formula]

OCI-LY10 cells = test: Viability assay of OCI-LY10 cells (CTG); assay type: cell-based; conditions: cell viability, read-out: OCl-Ly10
Description: as §1, §2

Row | Structure (SMILES) | IC50 (TMD8 cells; Homo sapiens) | IC50 (OCI-LY10 cells; Homo sapiens, OCI-Ly10, 120 h) | IC50 (TMD8 cells) | IC50 (OCI-LY10 cells; 120 hours)
1 | COc1ccc(F)cc1C(=O)NCc1ccc(-c2nc(C3CCSCC3)cc3[nH]nc(N)c23)cc1 [Example 91, N-(4-(3-amino-6-(tetrahydro-2H-thiopyran-4-yl)-1H-pyrazolo[4,3-c]pyridin-4-yl)benzyl)-5-fluoro-2-methoxybenzamide] | ≤ 5 nM | ≤ 5 nM |  | 
2 | COc1ccc(F)cc1C(=O)NCc1ccc(-c2nc(C(C)C(F)(F)F)c(-c3ccn(C)n3)c3[nH]nc(N)c23)cc1 (single isomer, unassigned) [Example 6-1, N-(4-(3-amino-7-(1-methyl-1H-pyrazol-3-yl)-6-(1,1,1-trifluoropropan-2-yl)-1H-pyrazolo[4,3-c]pyridin-4-yl)benzyl)-5-fluoro-2-methoxybenzamide] | ≤ 5 nM | 5 to 10 nM |  | 
3 | COc1ccc(F)cc1C(=O)NCc1ccc(-c2nc([C@H]3CC[C@H](CO)CC3)cc3[nH]nc(N)c23)cc1 [Example 117, N-(4-(3-amino-6-((1r,4r)-4-(hydroxymethyl)cyclohexyl)-1H-pyrazolo[4,3-c]pyridin-4-yl)benzyl)-5-fluoro-2-methoxybenzamide] | ≤ 5 nM | ≤ 5 nM |  | 
4 | COc1ccc(F)cc1C(=O)NCc1ccc(-c2nc(C(C)C(F)(F)F)c(-c3ncccn3)c3[nH]nc(N)c23)cc1 (single isomer, unassigned) [Example 7-2, N-(4-(3-amino-7-(pyrimidin-2-yl)-6-(1,1,1-trifluoropropan-2-yl)-1H-pyrazolo[4,3-c]pyridin-4-yl)benzyl)-5-fluoro-2-methoxybenzamide] |  |  | ≤ 5 nM | ≤ 5 nM
5 | COc1ccc(F)cc1C(=O)NCc1ccc(-c2nc(C(C)C(F)(F)F)cc3[nH]nc(N)c23)cc1 (single isomer, unassigned) [Example 2, N-(4-(3-amino-6-(1,1,1-trifluoropropan-2-yl)-1H-pyrazolo[4,3-c]pyridin-4-yl)benzyl)-5-fluoro-2-methoxybenzamide] | 5 to 10 nM | 10 to 50 nM |  | 
6 | COc1ccc(F)cc1C(=O)NCc1ccc(-c2ncc(-c3cnccn3)c3[nH]nc(N)c23)cc1 [Example 18, N-(4-(3-amino-7-(pyrazin-2-yl)-1H-pyrazolo[4,3-c]pyridin-4-yl)benzyl)-5-fluoro-2-methoxybenzamide] | 5 to 10 nM | 10 to 50 nM |  | 
7 | COc1ccc(F)cc1C(=O)NCc1ccc(-c2nc(C(F)F)c(-c3ncccn3)c3[nH]nc(N)c23)cc1 [Example 85, N-(4-(3-amino-6-(difluoromethyl)-7-(pyrimidin-2-yl)-1H-pyrazolo[4,3-c]pyridin-4-yl)benzyl)-5-fluoro-2-methoxybenzamide] | ≤ 5 nM | 10 to 50 nM |  | 
8 | COc1ccc(F)cc1C(=O)NCc1ccc(-c2nc(C)c(-c3ncccn3)c3[nH]nc(N)c23)cc1 [Example 84, N-(4-(3-amino-6-methyl-7-(pyrimidin-2-yl)-1H-pyrazolo[4,3-c]pyridin-4-yl)benzyl)-5-fluoro-2-methoxybenzamide] | 5 to 10 nM | 10 to 50 nM |  | 
9 | COc1ccc(F)cc1C(=O)NCc1ccc(-c2ncc(-c3ccn(C)n3)c3[nH]nc(N)c23)cc1 [Example 23, N-(4-(3-amino-7-(1-methyl-1H-pyrazol-3-yl)-1H-pyrazolo[4,3-c]pyridin-4-yl)benzyl)-5-fluoro-2-methoxybenzamide] | ≤ 5 nM | ≤ 5 nM |  | 
10 | COc1ccc(F)cc1C(=O)NCc1ccc(-c2ncc(-c3ccccn3)c3[nH]nc(N)c23)cc1 [Example 15, N-(4-(3-amino-7-(pyridin-2-yl)-1H-pyrazolo[4,3-c]pyridin-4-yl)benzyl)-5-fluoro-2-methoxybenzamide] | ≤ 5 nM | 5 to 10 nM |  | 
11 | COc1ccc(F)cc1C(=O)NCc1ccc(-c2nc(C(C)C(F)(F)F)cc3[nH]nc(N)c23)cc1 (single isomer, unassigned) [Example 3, N-(4-(3-amino-6-(1,1,1-trifluoropropan-2-yl)-1H-pyrazolo[4,3-c]pyridin-4-yl)benzyl)-5-fluoro-2-methoxybenzamide] |  |  | 5 to 10 nM | 10 to 50 nM
12 | COc1ccc(F)cc1C(=O)NCc1ccc(-c2ncc(-c3ccc(C(F)(F)F)cn3)c3[nH]nc(N)c23)cc1 [Example 24, N-(4-(3-amino-7-(5-(trifluoromethyl)pyridin-2-yl)-1H-pyrazolo[4,3-c]pyridin-4-yl)benzyl)-5-fluoro-2-methoxybenzamide] | ≤ 5 nM | 10 to 50 nM |  | 
13 | COc1ccc(F)cc1C(=O)NCc1ccc(-c2ncc(-c3ccncn3)c3[nH]nc(N)c23)cc1 [Example 19] | 5 to 10 nM | 10 to 50 nM |  | 
14 | COc1ccc(F)cc1C(=O)NCc1ccc(-c2nc(C(C)C(F)(F)F)c(-c3ncccn3)c3[nH]nc(N)c23)cc1 (single isomer, unassigned) [Example 7-1, N-(4-(3-amino-7-(pyrimidin-2-yl)-6-(1,1,1-trifluoropropan-2-yl)-1H-pyrazolo[4,3-c]pyridin-4-yl)benzyl)-5-fluoro-2-methoxybenzamide] | ≤ 5 nM | ≤ 5 nM |  | 
15 | COc1ccc(F)cc1C(=O)NCc1ccc(-c2ncc(-c3ncccn3)c3[nH]nc(N)c23)cc1 [Example 17, N-(4-(3-amino-7-(pyrimidin-2-yl)-1H-pyrazolo[4,3-c]pyridin-4-yl)benzyl)-5-fluoro-2-methoxybenzamide] | 5 to 10 nM | 10 to 50 nM |  | 
16 | COc1ccc(F)cc1C(=O)NCc1ccc(-c2ncc(-c3ccc(S(C)(=O)=O)cn3)c3[nH]nc(N)c23)cc1 [Example 35, N-(4-(3-amino-7-(5-(methylsulfonyl)pyridin-2-yl)-1H-pyrazolo[4,3-c]pyridin-4-yl)benzyl)-5-fluoro-2-methoxybenzamide] | ≤ 5 nM | ≤ 5 nM |  | 
17 | COc1ccc(F)cc1C(=O)NCc1ccc(-c2nc(C(C)C(F)(F)F)c(-c3ccn(C)n3)c3[nH]nc(N)c23)cc1 (single isomer, unassigned) [Example 6-2, N-(4-(3-amino-7-(1-methyl-1H-pyrazol-3-yl)-6-(1,1,1-trifluoropropan-2-yl)-1H-pyrazolo[4,3-c]pyridin-4-yl)benzyl)-5-fluoro-2-methoxybenzamide] |  |  | ≤ 5 nM | ≤ 5 nM
18 | COc1ccc(F)cc1C(=O)NCc1ccc(-c2ncc(-c3ccc(F)cn3)c3[nH]nc(N)c23)cc1 [Example 21, N-(4-(3-amino-7-(5-fluoropyridin-2-yl)-1H-pyrazolo[4,3-c]pyridin-4-yl)benzyl)-5-fluoro-2-methoxybenzamide] | ≤ 5 nM | 5 to 10 nM |  | 
19 | C=CC(=O)N1CCCC(c2cc3[nH]nc(N)c3c(-c3ccc(CNC(=O)c4cc(F)ccc4OC)cc3)n2)C1 (stereo not shown) [Example 96, N-(4-(6-(1-acryloylpiperidin-3-yl)-3-amino-1H-pyrazolo[4,3-c]pyridin-4-yl)benzyl)-5-fluoro-2-methoxybenzamide] | ≤ 5 nM | ≤ 5 nM |  | 
20 | COc1ccc(F)cc1C(=O)NCc1ccc(-c2nc(C(C)C(F)(F)F)c(-c3cc(C)[nH]n3)c3[nH]nc(N)c23)cc1 (stereo not shown) [Example 9, N-(4-(3-amino-7-(5-methyl-1H-pyrazol-3-yl)-6-(1,1,1-trifluoropropan-2-yl)-1H-pyrazolo[4,3-c]pyridin-4-yl)benzyl)-5-fluoro-2-methoxybenzamide] | ≤ 5 nM | 5 to 10 nM |  | 
